Laboratory results reported in US20250041429A1, “COMPOUND HAVING BTK PROTEIN DEGRADATION ACTIVITY, AND MEDICAL USES THEREOF” (UBIX THERAPEUTICS, INC., priority 2021, published 2025).

Molecular target: T1, BTK protein (Homo sapiens, UniProt Q06187)
T1 construct: endogenous in cells; host or cells: TMD-8 cells
Experiment: Measurement of BTK protein degradation ability in TMD-8 cells (Western blotting)
Assay type: cell-based
Conditions: harvested after 24 hours; for BTK degradation (%) 1 nM: compound 1 nM; for BTK degradation (%) 10 nM: compound 10 nM; for BTK degradation (%) 100 nM: compound 100 nM
Summary of the method: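 BTK levels were measured by immunoblotting of equal-protein RIPA lysates, normalized to GAPDH or β-actin, with chemiluminescent or infrared detection. Lysates came from TMD-8 cells exposed to compound for 24 h at final concentrations of 0.1, 1, 10 μM or 0.0001–0.1 μM, against a DMSO control.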

T1 sequence (Q06187 whole entry): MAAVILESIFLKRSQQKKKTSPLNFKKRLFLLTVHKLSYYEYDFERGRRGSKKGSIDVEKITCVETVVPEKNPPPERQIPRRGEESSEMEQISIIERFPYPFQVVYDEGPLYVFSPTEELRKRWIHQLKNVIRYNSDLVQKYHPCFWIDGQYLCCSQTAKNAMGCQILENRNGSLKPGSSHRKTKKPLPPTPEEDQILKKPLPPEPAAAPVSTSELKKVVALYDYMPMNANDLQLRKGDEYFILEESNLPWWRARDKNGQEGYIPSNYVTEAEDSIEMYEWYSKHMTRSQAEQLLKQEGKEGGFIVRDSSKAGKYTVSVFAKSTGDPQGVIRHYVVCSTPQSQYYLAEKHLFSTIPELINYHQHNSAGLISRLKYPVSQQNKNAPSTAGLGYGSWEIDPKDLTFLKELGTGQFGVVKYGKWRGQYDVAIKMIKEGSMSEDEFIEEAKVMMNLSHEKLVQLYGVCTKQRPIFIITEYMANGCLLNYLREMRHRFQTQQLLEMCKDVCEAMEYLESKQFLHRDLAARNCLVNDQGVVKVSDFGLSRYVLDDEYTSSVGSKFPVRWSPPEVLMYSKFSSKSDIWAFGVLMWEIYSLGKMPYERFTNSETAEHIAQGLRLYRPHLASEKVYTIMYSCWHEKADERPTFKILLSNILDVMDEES

Row | Compound | BTK degradation (%) 1 nM | BTK degradation (%) 10 nM | BTK degradation (%) 100 nM
1 | Cc1cc(-c2ccnc(Nc3ccc(N4CCC(C(=O)N5CCC(c6ccc(NC7CCC(=O)NC7=O)cc6)CC5)CC4)cc3)n2)ccc1CNC(=O)N1CC(OC(C)C)C1 (stereo not drawn) [Example 117, N-(4-(2-((4-(4-(4-(4-((2,6-dioxopiperidin-3-yl)amino)phenyl)piperidine-1-carbonyl)piperidin-1-yl)phenyl)amino)pyrimidin-4-yl)-2-methylbenzyl)-3-isopropoxyazetidine-1-carboxamide] | 24.0% | 87.5% | 99.0%
2 | Cc1cc(-c2ccnc(Nc3ccc(N4CCC(C(=O)N5CCC(c6ccc(OC7CCC(=O)NC7=O)cc6)CC5)CC4)cc3)n2)ccc1CNC(=O)N1CC(OC(C)C)C1 (stereo not drawn) [Example 118, N-(4-(2-((4-(4-(4-(4-((2,6-dioxopiperidin-3-yl)oxy)phenyl)piperidine-1-carbonyl)piperidin-1-yl)phenyl)amino)pyrimidin-4-yl)-2-methylbenzyl)-3-isopropoxyazetidine-1-carboxamide] | 15.0% | 68.0% | 97.5%
3 | Cc1cc(-c2ccnc(Nc3ccc(N4CCC(CN5CCC(c6ccc(OC7CCC(=O)NC7=O)cc6)CC5)CC4)cc3)n2)ccc1CNC(=O)N1CC(OC(C)C)C1 (stereo not drawn) [Example 119, N-(4-(2-((4-(4-((4-(4-((2,6-dioxopiperidin-3-yl)oxy)phenyl)piperidin-1-yl)methyl)piperidin-1-yl)phenyl)amino)pyrimidin-4-yl)-2-methylbenzyl)-3-isopropoxyazetidine-1-carboxamide] | 41.5% | 91.0% | 99.5%
4 | Cc1cc(-c2ccnc(Nc3ccc(N4CCC(CN5CCN(c6cccc(NC7CCC(=O)NC7=O)c6)CC5)CC4)cc3)n2)ccc1CNC(=O)N1CC(OC(C)C)C1 (stereo not drawn) [Example 120, N-(4-(2-((4-(4-((4-(3-((2,6-dioxopiperidin-3-yl)amino)phenyl)piperazin-1-yl)methyl)piperidin-1-yl)phenyl)amino)pyrimidin-4-yl)-2-methylbenzyl)-3-isopropoxyazetidine-1-carboxamide] | 18.5% | 91.5% | 99.5%
5 | Cc1cc(-c2ccnc(Nc3ccc(N4CCC(CN5CCN(c6ccc(NC7CCC(=O)NC7=O)cc6)CC5)CC4)cc3)n2)ccc1CNC(=O)N1CC(OC(C)C)C1 (stereo not drawn) [Example 121, N-(4-(2-((4-(4-((4-(4-((2,6-dioxopiperidin-3-yl)amino)phenyl)piperazin-1-yl)methyl)piperidin-1-yl)phenyl)amino)pyrimidin-4-yl)-2-methylbenzyl)-3-isopropoxyazetidine-1-carboxamide] | 43.0% | 97.0% | 100.0%
6 | Cc1cc(-c2ccnc(Nc3ccc(N4CCC(CN5CCC(c6cccc(NC7CCC(=O)NC7=O)c6)CC5)CC4)cc3)n2)ccc1CNC(=O)N1CC(OC(C)C)C1 (stereo not drawn) [Example 122, N-(4-(2-((4-(4-((4-(3-((2,6-dioxopiperidin-3-yl)amino)phenyl)piperidin-1-yl)methyl)piperidin-1-yl)phenyl)amino)pyrimidin-4-yl)-2-methylbenzyl)-3-isopropoxyazetidine-1-carboxamide] | −9.0% | 63.0% | 98.5%
7 | Cc1cc(-c2ccnc(Nc3ccc(N4CCC(CN5CCC(c6ccc(NC7CCC(=O)NC7=O)cc6)CC5)CC4)cc3)n2)ccc1CNC(=O)N1CC(OC(C)C)C1 (stereo not drawn) [Example 123, N-(4-(2-((4-(4-((4-(4-((2,6-dioxopiperidin-3-yl)amino)phenyl)piperidin-1-yl)methyl)piperidin-1-yl)phenyl)amino)pyrimidin-4-yl)-2-methylbenzyl)-3-isopropoxyazetidine-1-carboxamide] | 17.5% | 92.5% | 100.0%
8 | Cc1cc(-c2ccnc(Nc3ccc(N4CCC(CN5CCC(c6ccc(OC7CCC(=O)NC7=O)cn6)CC5)CC4)cc3)n2)ccc1CNC(=O)N1CC(OC(C)C)C1 (stereo not drawn) [Example 124, N-(4-(2-((4-(4-((4-(5-((2,6-dioxopiperidin-3-yl)oxy)pyridin-2-yl)piperidin-1-yl)methyl)piperidin-1-yl)phenyl)amino)pyrimidin-4-yl)-2-methylbenzyl)-3-isopropoxyazetidine-1-carboxamide] | −1.3% | 63.7% | 97.7%
9 | Cc1cc(-c2ccnc(Nc3ccc(N4CCC(CN5CCN(c6ccc(OC7CCC(=O)NC7=O)cn6)CC5)CC4)cc3)n2)ccc1CNC(=O)N1CC(OC(C)C)C1 (stereo not drawn) [Example 125, N-(4-(2-((4-(4-((4-(5-((2,6-dioxopiperidin-3-yl)oxy)pyridin-2-yl)piperazin-1-yl)methyl)piperidin-1-yl)phenyl)amino)pyrimidin-4-yl)-2-methylbenzyl)-3-isopropoxyazetidine-1-carboxamide] | 14.7% | 85.0% | 99.3%
10 | Cc1cc(-c2ccnc(Nc3ccc(N4CCC(CN5CCC(c6ccc(NC7CCC(=O)NC7=O)cn6)CC5)CC4)cc3)n2)ccc1CNC(=O)N1CC(OC(C)C)C1 (stereo not drawn) [Example 126, N-(4-(2-((4-(4-((4-(5-((2,6-dioxopiperidin-3-yl)amino)pyridin-2-yl)piperidin-1-yl)methyl)piperidin-1-yl)phenyl)amino)pyrimidin-4-yl)-2-methylbenzyl)-3-isopropoxyazetidine-1-carboxamide] | 39.7% | 95.7% | 100.0%
11 | Cc1cc(-c2ccnc(Nc3ccc(N4CCC(CN5CCN(c6ccc(NC7CCC(=O)NC7=O)cn6)CC5)CC4)cc3)n2)ccc1CNC(=O)N1CC(OC(C)C)C1 (stereo not drawn) [Example 127, N-(4-(2-((4-(4-((4-(5-((2,6-dioxopiperidin-3-yl)amino)pyridin-2-yl)piperazin-1-yl)methyl)piperidin-1-yl)phenyl)amino)pyrimidin-4-yl)-2-methylbenzyl)-3-isopropoxyazetidine-1-carboxamide] | 43.3% | 94.0% | 99.3%
12 | Cc1cc(-c2ccnc(Nc3ccc(N4CCC(CN5CCC(c6ccc(NC7CCC(=O)NC7=O)cn6)CC5)CC4)cc3)n2)ccc1CNC(=O)c1cnn(C(C)C)c1 (stereo not drawn) [Example 128, N-(4-(2-((4-(4-((4-(5-((2,6-dioxopiperidin-3-yl)amino)pyridin-2-yl)piperidin-1-yl)methyl)piperidin-1-yl)phenyl)amino)pyrimidin-4-yl)-2-methylbenzyl)-1-isopropyl-1H-pyrazole-4-carboxamide] | 51.5% | 94.5% | 99.0%
13 | Cc1cc(-c2ccnc(Nc3ccc(N4CCC(CN5CCN(c6ccc(NC7CCC(=O)NC7=O)cn6)CC5)CC4)cc3)n2)ccc1CNC(=O)c1cnn(C(C)C)c1 (stereo not drawn) [Example 129, N-(4-(2-((4-(4-((4-(5-((2,6-dioxopiperidin-3-yl)amino)pyridin-2-yl)piperazin-1-yl)methyl)piperidin-1-yl)phenyl)amino)pyrimidin-4-yl)-2-methylbenzyl)-1-isopropyl-1H-pyrazole-4-carboxamide] | 49.0% | 95.5% | 100.0%
14 | Cc1cc(-c2ccnc(Nc3ccc(N4CCC(CN5CCC(c6ccc(NC7CCC(=O)NC7=O)cn6)CC5)CC4)cc3)n2)ccc1CNC(=O)c1cnn(C(C)(C)C)c1 (stereo not drawn) [Example 130, 1-(tert-butyl)-N-(4-(2-((4-(4-((4-(5-((2,6-dioxopiperidin-3-yl)amino)pyridin-2-yl)piperidin-1-yl)methyl)piperidin-1-yl)phenyl)amino)pyrimidin-4-yl)-2-methylbenzyl)-1H-pyrazole-4-carboxamide] | 56.5% | 95.0% | 99.5%
15 | Cc1cc(-c2ccnc(Nc3ccc(N4CCC(CN5CCN(c6ccc(NC7CCC(=O)NC7=O)cn6)CC5)CC4)cc3)n2)ccc1CNC(=O)c1cnn(C(C)(C)C)c1 (stereo not drawn) [Example 131, 1-(tert-butyl)-N-(4-(2-((4-(4-((4-(5-((2,6-dioxopiperidin-3-yl)amino)pyridin-2-yl)piperazin-1-yl)methyl)piperidin-1-yl)phenyl)amino)pyrimidin-4-yl)-2-methylbenzyl)-1H-pyrazole-4-carboxamide] | 59.5% | 96.0% | 100.0%
16 | Cc1cc(-c2ccnc(Nc3ccc(N4CCC(CN5CCC(c6ccc(NC7CCC(=O)NC7=O)cn6)CC5)CC4)cc3)n2)ccc1CNC(=O)c1cn(C(C)(C)C)nn1 (stereo not drawn) [Example 132, 1-(tert-butyl)-N-(4-(2-((4-(4-((4-(5-((2,6-dioxopiperidin-3-yl)amino)pyridin-2-yl)piperidin-1-yl)methyl)piperidin-1-yl)phenyl)amino)pyrimidin-4-yl)-2-methylbenzyl)-1H-1,2,3-triazole-4-carboxamide] | 54.5% | 95.5% | 100.0%
17 | Cc1cc(-c2ccnc(Nc3ccc(N4CCC(CN5CCN(c6ccc(NC7CCC(=O)NC7=O)cn6)CC5)CC4)cc3)n2)ccc1CNC(=O)c1cn(C(C)(C)C)nn1 (stereo not drawn) [Example 133, 1-(tert-butyl)-N-(4-(2-((4-(4-((4-(5-((2,6-dioxopiperidin-3-yl)amino)pyridin-2-yl)piperazin-1-yl)methyl)piperidin-1-yl)phenyl)amino)pyrimidin-4-yl)-2-methylbenzyl)-1H-1,2,3-triazole-4-carboxamide] | 60.5% | 96.5% | 100.0%
